One may read the IC50 as the concentration that inhibits the measured activity by half.

For this assay, the target named is human MGL from HeLa cells (Homo sapiens (Human), UniProt Q99685). Nature of the assay: MGL in vitro activity assay: cleavage of [glycerol-1,3-3H]-oleyl glycerol, activated carbon filtration. The following applies: 300 nM [Glycerol-1,3-3H]-oleyl glycerol, endogenously expressed MGL from HeLa cells, one hour incubation. The assay is classed as biochemical. As for the experimental part:
The assay used to measure the in vitro activity of MGL is adapted from the assay used for another serine hydrolase (FAAH) described in Wilson et al., 2003 (A high-throughput-compatible assay for determining the activity of fatty acid amide hydrolase. Wilson S J, Lovenberg T W, Barbier A J. Anal Biochem. 2003 Jul. 15; 318(2):270-5.). The assay consists of combining endogenously expressed MGL from HeLa cells with test compounds, adding [glycerol-1,3-^3H]-oleyl glycerol, incubating for one hour, and then measuring the amount of cleaved [1,3-^3H]-glycerol that passes through an activated carbon filter. The amount of cleaved, tritiated glycerol passing through the carbon filter is proportional to the activity of the MGL enzyme in a particular well/test condition.
Standard conditions for this assay combine 300 nM [Glycerol-1,3-^3H]-oleyl glycerol with human MGL from HeLa cells and test compounds for one hour, after which the reaction is filtered through activated carbon and tritium is measured in the flow through. The test compound concentration in screening mode is 10 μM, while the highest compound concentration in IC50 assays is determined empirically. MGL is the predominant hydrolase in HeLa cells/cell homogenates.

Sequence of human MGL from HeLa cells (Q99685 whole entry): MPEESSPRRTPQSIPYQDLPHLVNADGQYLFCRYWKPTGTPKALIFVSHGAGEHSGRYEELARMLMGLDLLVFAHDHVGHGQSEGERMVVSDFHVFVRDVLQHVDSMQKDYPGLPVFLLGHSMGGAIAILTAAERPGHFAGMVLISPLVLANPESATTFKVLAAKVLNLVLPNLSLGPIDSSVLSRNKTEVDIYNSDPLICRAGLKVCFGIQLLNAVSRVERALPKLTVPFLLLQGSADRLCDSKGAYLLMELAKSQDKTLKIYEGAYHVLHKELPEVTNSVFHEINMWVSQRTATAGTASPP

For the compound `COc1nccc(C(=O)N2CCc3c(nn(C)c3-c3cc(C(F)(F)F)n(C)n3)[C@@H]2C)c1C` [Example 121, (S)-(2,7-Dimethyl-3-(1-methyl-5-(trifluoromethyl)-1H-pyrazol-3-yl)-2,4,5,7-tetrahydro-6H-pyrazolo[3,4-c]pyridin-6-yl)(2-methoxy-3-methylpyridin-4-yl)methanone], the midpoint of inhibition, the IC50, lay at 83 nM.

`C[C@H]1c2nn(C)c(-c3ccn(C(F)F)n3)c2CCN1C(=O)c1ccc2ncccc2c1` [Example 67, (S)-(3-(1-(Difluoromethyl)-1H-pyrazol-3-yl)-2,7-dimethyl-2,4,5,7-tetrahydro-6H-pyrazolo[3,4-c]pyridin-6-yl)(quinolin-6-yl)methanone]: half-maximal inhibition (IC50) required 1340 nM.

The compound `C[C@H]1c2nn(C)c(-c3cc(C(F)(F)F)n(C)n3)c2CCN1C(=O)c1ccc2ncsc2c1` [Example 120, (S)-Benzo[d]thiazol-6-yl(2,7-dimethyl-3-(1-methyl-5-(trifluoromethyl)-1H-pyrazol-3-yl)-2,4,5,7-tetrahydro-6H-pyrazolo[3,4-c]pyridin-6-yl)methanone] registered an IC50 of 46 nM.

`CCn1nc(C(F)(F)F)cc1-c1c2c(nn1C)[C@@H]1CCC[C@H](C2)N1C(=O)c1cccc(C)c1` [Example 78, ((5R,9S)-3-(1-Ethyl-3-(trifluoromethyl)-1H-pyrazol-5-yl)-2-methyl-4,5,6,7,8,9-hexahydro-2H-5,9-epiminocycloocta[c]pyrazol-10-yl)(m-tolyl)methanone] registered an IC50 of 160 nM.

Regarding `COc1ccc(C(=O)N2CCc3c(nn(C)c3-c3cc(C(F)(F)F)nn3C)[C@@H]2C)c(Cl)c1` [Example 42, (S)-(2-Chloro-4-methoxyphenyl)(2,7-dimethyl-3-(1-methyl-3-(trifluoromethyl)-1H-pyrazol-5-yl)-2,4,5,7-tetrahydro-6H-pyrazolo[3,4-c]pyridin-6-yl)methanone], half-maximal inhibition (IC50) was put at 100 nM.

`C[C@H]1c2nn(C)c(-c3cnn(C)c3C(F)(F)F)c2CCN1C(=O)c1n[nH]c2cc(F)cc(F)c12` [Example 28, (S)-(4,6-Difluoro-1H-indazol-3-yl)(2,7-dimethyl-3-(1-methyl-5-(trifluoromethyl)-1H-pyrazol-4-yl)-2,4,5,7-tetrahydro-6H-pyrazolo[3,4-c]pyridin-6-yl)methanone] registered an IC50 of 2120 nM.

On to `C[C@H]1c2nn(C)c(-c3cc(C(F)(F)F)nn3C)c2CCN1C(=O)c1cccc2ncsc12` [Example 57, (S)-Benzo[d]thiazol-7-yl(2,7-dimethyl-3-(1-methyl-3-(trifluoromethyl)-1H-pyrazol-5-yl)-2,4,5,7-tetrahydro-6H-pyrazolo[3,4-c]pyridin-6-yl)methanone], for which half-maximal inhibition (IC50) was put at 22 nM.

Compound `Cc1ccc(C(=O)N2CCc3c(nn(C)c3-c3cnn(C)c3C(F)(F)F)[C@@H]2C)c(F)c1` [Example 30, (S)-(2,7-Dimethyl-3-(1-methyl-5-(trifluoromethyl)-1H-pyrazol-4-yl)-2,4,5,7-tetrahydro-6H-pyrazolo[3,4-c]pyridin-6-yl)(2-fluoro-4-methylphenyl)methanone] registered an IC50 of 3070 nM.

`Cc1cccc2ncc(C(=O)N3CCc4c(nn(C)c4-c4cc(C(F)(F)F)nn4C)[C@@H]3C)n12` [Example 8, (S)-(2,7-Dimethyl-3-(1-methyl-3-(trifluoromethyl)-1H-pyrazol-5-yl)-2,4,5,7-tetrahydro-6H-pyrazolo[3,4-c]pyridin-6-yl)(5-methylimidazo[1,2-a]pyridin-3-yl)methanone] returned an IC50 of 8.9 nM. Against the preceding compound, the IC50 is about 340-fold lower.

In the case of `Cc1ccc2cc(C(=O)N3CCc4c(nn(C)c4-c4cnn(C)c4C(F)(F)F)[C@@H]3C)cc(C)c2n1` [Example 33, (S)-(2,7-Dimethyl-3-(1-methyl-5-(trifluoromethyl)-1H-pyrazol-4-yl)-2,4,5,7-tetrahydro-6H-pyrazolo[3,4-c]pyridin-6-yl)(2,8-dimethylquinolin-6-yl)methanone], half-maximal inhibition (IC50) required 6470 nM.

For `Cc1cc(C(=O)N2CCc3c(nn(C)c3-c3cc(C(F)(F)F)nn3C)[C@@H]2C)c2cc(F)ccc2n1` [Example 10, (S)-(2,7-Dimethyl-3-(1-methyl-3-(trifluoromethyl)-1H-pyrazol-5-yl)-2,4,5,7-tetrahydro-6H-pyrazolo[3,4-c]pyridin-6-yl)(6-fluoro-2-methylquinolin-4-yl)methanone], half-maximal inhibition (IC50) required 18 nM.

The compound `Cc1cc(C(=O)N2[C@@H]3CCC[C@H]2c2nn(C)c(-c4cc(C(F)(F)F)n(C)n4)c2C3)c2cc(F)ccc2n1` [Example 88, (6-Fluoro-2-methylquinolin-4-yl)((5R,9S)-2-methyl-3-(1-methyl-5-(trifluoromethyl)-1H-pyrazol-3-yl)-4,5,6,7,8,9-hexahydro-2H-5,9-epiminocycloocta[c]pyrazol-10-yl)methanone] had an IC50 of 6.6 nM.

`Cc1ccc(C(=O)N2CCc3c(nn(C)c3-c3cc(C(F)(F)F)nn3C)[C@@H]2C)c(OC(F)(F)F)c1` [Example 110, (S)-(2,7-Dimethyl-3-(1-methyl-3-(trifluoromethyl)-1H-pyrazol-5-yl)-2,4,5,7-tetrahydro-6H-pyrazolo[3,4-c]pyridin-6-yl)(4-methyl-2-(trifluoromethoxy)phenyl)methanone] had an IC50 of 650 nM.

`C[C@H]1c2nn(C)c(-c3cc(C(F)(F)F)nn3C)c2CCN1C(=O)c1cc2scnc2cn1` [Example 122, (S)-(2,7-Dimethyl-3-(1-methyl-3-(trifluoromethyl)-1H-pyrazol-5-yl)-2,4,5,7-tetrahydro-6H-pyrazolo[3,4-c]pyridin-6-yl)(thiazolo[4,5-c]pyridin-6-yl)methanone] displayed an IC50 of 260 nM. Compared with the last compound, the IC50 is about 2.5-fold lower.

`COc1nccc(C(=O)N2CCc3c(nn(C)c3-c3cnn(C)c3C(F)(F)F)[C@@H]2C)c1C` [Example 60, (S)-(2,7-Dimethyl-3-(1-methyl-5-(trifluoromethyl)-1H-pyrazol-4-yl)-2,4,5,7-tetrahydro-6H-pyrazolo[3,4-c]pyridin-6-yl)(2-methoxy-3-methylpyridin-4-yl)methanone] yielded an IC50 of 4250 nM.

For `C[C@H]1c2nn(C)c(-c3cnn(-c4ccccn4)c3)c2CCN1C(=O)c1ccc2ncccc2c1` [Example 70, (S)-(2,7-Dimethyl-3-(1-(pyridin-2-yl)-1H-pyrazol-4-yl)-2,4,5,7-tetrahydro-6H-pyrazolo[3,4-c]pyridin-6-yl)(quinolin-6-yl)methanone], the IC50 was found to be 1230 nM.

For the compound `Cc1cc(C(=O)N2CCc3c(nn(C)c3-c3cc(C(F)(F)F)nn3C)[C@@H]2C)c2cnn(C)c2n1` [Example 15, (S)-(1,6-Dimethyl-1H-pyrazolo[3,4-b]pyridin-4-yl)(2,7-dimethyl-3-(1-methyl-3-(trifluoromethyl)-1H-pyrazol-5-yl)-2,4,5,7-tetrahydro-6H-pyrazolo[3,4-c]pyridin-6-yl)methanone], the IC50 came out at 56 nM.

`COc1cc(Cl)cc(C(=O)N2CCc3c(nn(C)c3-c3cc(C(F)(F)F)nn3C)[C@@H]2C)c1` [Example 39, (S)-(3-Chloro-5-methoxyphenyl)(2,7-dimethyl-3-(1-methyl-3-(trifluoromethyl)-1H-pyrazol-5-yl)-2,4,5,7-tetrahydro-6H-pyrazolo[3,4-c]pyridin-6-yl)methanone]: the IC50 was found to be 38 nM.

Compound `COc1ccc2nc(C)cc(C(=O)N3CCc4c(nn(C)c4-c4cc(C(F)(F)F)nn4C)[C@@H]3C)c2c1` [Example 26, (S)-(2,7-Dimethyl-3-(1-methyl-3-(trifluoromethyl)-1H-pyrazol-5-yl)-2,4,5,7-tetrahydro-6H-pyrazolo[3,4-c]pyridin-6-yl)(6-methoxy-2-methylquinolin-4-yl)methanone] yielded an IC50 of 880 nM.

`Cc1ccc2c(C)c(C(=O)N3CCc4c(nn(C)c4-c4cc(C(F)(F)F)nn4C)[C@@H]3C)ccc2n1` [Example 92, (S)-(2,7-Dimethyl-3-(1-methyl-3-(trifluoromethyl)-1H-pyrazol-5-yl)-2,4,5,7-tetrahydro-6H-pyrazolo[3,4-c]pyridin-6-yl)(2,5-dimethylquinolin-6-yl)methanone] came in with an IC50 of 380 nM.

With `C[C@H]1c2nn(C)c(-c3cnn(C(F)F)c3)c2CCN1C(=O)c1ccc2ncccc2c1` [Example 69, (S)-(3-(1-(Difluoromethyl)-1H-pyrazol-4-yl)-2,7-dimethyl-2,4,5,7-tetrahydro-6H-pyrazolo[3,4-c]pyridin-6-yl)(quinolin-6-yl)methanone], the IC50 was found to be 89 nM.

Compound `Cc1cccc(C(=O)N2[C@@H]3CCC[C@H]2c2nn(C)c(-c4cc(C(F)(F)F)nn4C)c2C3)c1` (stereo in doubt) [Example 76, ((5R,9S)-2-Methyl-3-(1-methyl-3-(trifluoromethyl)-1H-pyrazol-5-yl)-4,5,6,7,8,9-hexahydro-2H-5,9-epiminocycloocta[c]pyrazol-10-yl)(m-tolyl)methanone] registered an IC50 of 68 nM.

Take `Cn1nc(C(F)(F)F)cc1-c1c2c(nn1C)[C@@H]1CCC[C@H](C2)N1C(=O)c1ccc2c(c1)OCCC2` (stereo in doubt) [Example 75, Chroman-7-yl((5R,9S)-2-methyl-3-(1-methyl-3-(trifluoromethyl)-1H-pyrazol-5-yl)-4,5,6,7,8,9-hexahydro-2H-5,9-epiminocycloocta[c]pyrazol-10-yl)methanone]: the IC50 stood at 44 nM. This IC50 is about 1.5-fold lower than that of the compound before.

`C[C@H]1c2nn(C)c(-c3cnn(C(F)(F)F)c3)c2CCN1C(=O)c1ccc2ncccc2c1` [Example 64, (S)-(2,7-Dimethyl-3-(1-(trifluoromethyl)-1H-pyrazol-4-yl)-2,4,5,7-tetrahydro-6H-pyrazolo[3,4-c]pyridin-6-yl)(quinolin-6-yl)methanone] showed an IC50 of 79 nM.

(Values after US11891387B2, “Monoacylglycerol lipase modulators” (Janssen Pharmaceutica NV, priority 2020, dated 2024).)
